Experimental data published in US20240248074A1, “METHOD AND SYSTEM FOR SINGLE-CELL BIOPHYSICAL PROFILING USING A MICROFLUIDIC DEVICE” (NANYANG TECHNOLOGICAL UNIVERSITY, priority 2021, published 2024).
Entries after “also recorded” stand apart in the source; their conditions may differ. Like-named read-outs stand apart in the source and are kept apart here.

Experiments:
primary neutrophils [1] = experiment: Flow cytometric analysis of neutrophil activation markers and F-actin; assay type: cell-based, human; settings: for CD11 b expression / CD66b expression: Example 4, 2 hr treatment (FIG. 14)
Method: The staining protocols for leukocyte identification are similar as previously described^50. The samples were stained for 30 min at 4° C. with FITC-labelled anti-human CD11 b and allophycocyanin (APC)-labelled anti-human CD66b antibodies. Non-specific antibody binding was examined using corresponding isotype negative control antibodies. The cells were washed once prior to flow cytometry analysis. All antibodies were purchased from eBioscience (1:20 dilution) and analyzed using a BD LSR Fortessa flow cytometer (BD Biosciences).

primary neutrophils [2] = experiment: Multi-parametric biophysical (impedance) profiling of primary neutrophils treated with stimuli; assay type: cell-based, human; settings: for cell size: 2 hr treatment vs control (FIG. 13B, E); for correlation between CD66b expression and cell size: Example 5 (FIG. 20); for electrical size (cell size): 2 hr treatment (FIG. 17D); for nucleus opacity (|Z|12 MHz/|Z|0.3 MHz): 2 hr treatment (FIG. 17G); for electrical deformability index: 2 hr treatment vs untreated neutrophils (FIG. 17F); for UMAP projection of biophysical features (shift vs control): Example 6, 10 biophysical features (FIG. 21)
primary neutrophils [3] = experiment: Annexin V/Propidium iodide (PI) live-dead staining, flow cytometry; assay type: cell-based, human; settings: Example 5; STS 1 μM, 2 hr (FIG. 18)
HL-60 = experiment: Immunostaining and flow cytometric analysis of F-actin in HL-60; assay type: cell-based; settings: treated HL-60 vs control (FIG. 10 B, D, E)
Excerpt: The effect of cytoskeleton disruptors, such as cytochalasin D (CytoD) and latrunculin B (LatB), on HL-60 deformability, was studied (FIG. 10 A-E).

[4] = tested on: HL-60 (leukemia cell lines); assay type: cell-based
[5] = HL-60 treated with cytoskeleton disruptor vs DMSO treated control (FIG. 10)

Molecule	CD11 b expression (primary neutrophils [1])	CD66b expression (primary neutrophils [1])	cell size (primary neutrophils [2]; Example 4)	correlation between CD66b expression and cell size (primary neutrophils [2])	electrical size (cell size) (primary neutrophils [2]; Example 5)	nucleus opacity (|Z|12 MHz/|Z|0.3 MHz) (primary neutrophils [2]; Example 5)	electrical deformability index (primary neutrophils [2]; Example 5)	UMAP projection of biophysical features (shift vs control) (primary neutrophils [2])	F-actin expression (HL-60)	electrical deformability index [4, 5]	further results
CCCCCCCCCCCCCC(=O)O[C@@H]1[C@@H](C)[C@@]2(O)[C@@H](C=C(CO)C[C@]3(O)C(=O)C(C)=C[C@@H]23)[C@@H]2C(C)(C)[C@]12OC(C)=O [PMA, Phorbol Myristate Acetate]	elevated expressions	elevated expressions	larger than control	increase in CD66b expression with cell size	largest increase in cell size	significant decrease in nucleus opacities	more deformable	strong biophysical changes			impedance profile (cell size / opacity clusters) (primary neutrophils [2]; Example 4, PMA 200 nM, 2 hr): two distinct clusters; impedance profile (cell clusters / populations) (primary neutrophils [2]; Example 5, PMA 200 nM, 2 hr (FIG. 19)): two distinct cell clusters; also recorded: two distinct cell populations of different size and deformability
CN[C@@H]1C[C@H]2O[C@@](C)([C@@H]1OC)n1c3ccccc3c3c4c(c5c6ccccc6n2c5c31)C(=O)NC4 [STS, Staurosporine]						higher nucleus opacity		strong biophysical changes			membrane opacity (primary neutrophils [2]; Example 5, 2 hr treatment vs control (FIG. 17E)): significant increase in membrane opacity; Annexin V / PI expression (primary neutrophils [3]): increased Annexin V expression
C=C1[C@@H](C)[C@H]2[C@H](Cc3ccccc3)NC(=O)[C@]23[C@H](OC(C)=O)/C=C/[C@@](C)(O)C(=O)[C@@H](C)C/C=C/[C@H]3[C@@H]1O [cytochalasin D]									decreased F-actin expression	higher electrical deformability index	
CSCC[C@H](NC=O)C(=O)N[C@@H](CC(C)C)C(=O)N[C@@H](Cc1ccccc1)C(=O)O [fMLP, N-Formylmethionyl-leucyl-phenylalanine]	elevated expressions	elevated expressions	larger than control	increase in CD66b expression with cell size	increased		negligible changes	smaller shifts in different directions			F-actin expression (MFI) (primary neutrophils [1]; Example 5, 2 hr treatment (FIG. 17C)): highest F-actin expression; also recorded: increased F-actin expression; electrical deformability (deformability index) (primary neutrophils [2]; Example 4, 2 hr, fMLP 1 μM, glucose 30 mM, PMA 200 nM, vs untreated control (FIG. 13D)): stiffer cell properties
C/C1=C/C(=O)O[C@@H]2C[C@@H](CC[C@H](C)/C=C\CC1)O[C@@](O)([C@@H]1CSC(=O)N1)C2 [latrunculin B]									decreased F-actin expression	higher electrical deformability index	
paraformaldehyde [PFA]											cell size [4]: smaller cell size; electrical deformability index [4]: lower than untreated control
